Experimental data taken from patent US20140073634A1 (Institute For Applied Cancer Science/The University of …, priority 2012, published 2014).

Each compound was assayed on 293T-HRE-GFP-luc cells (assay: Cell-based reporter assay for IC50 determinations (HRE-luciferase, hypoxia)). Settings: 6 h, 6 hrs hypoxia (1% O2), luminescence.
Description: Cell-Based Reporter Assay for IC50 Determinations
293T-HRE-GFP-luc cells were routinely maintained in DMEM media (high glucose version with GlutaMAX and HEPES, Gibco, catalog #10564) supplemented with 10% fetal bovine serum and 2 μg/mL puromycin (Invitrogen, catalog #A11138-03) using a humidified incubator (normoxia conditions consisting of 37° C., 5% CO2 and ambient O2).
In preparation for the reporter assay, cells were harvested and resuspended in DMEM media (high glucose version with GlutaMAX and HEPES) supplemented with 10% fetal bovine serum. Cells were inoculated into 384-well white Culturplates (Perkin Elmer catalog #6007680) at a density of 12,000 cells/well in a volume of […]. The microplates were incubated overnight (approximately 17-19 hours) at 37° C. with 5% CO2 and ambient O2. Stock solutions of the test compounds were prepared in DMSO (Sigma, Catalog #D2650) and serially diluted 1:3 using DMSO. Compounds were additionally diluted (1:50) with culturemedium and 10 µL were added per well to the Culturplate. Following a 30 min. incubation under normoxia conditions, the plates were incubated in hypoxia for 6 hrs. (37° C., 5% CO2 and 1% O2). Steadylite Plus (Perkin Elmer, catalog #6016751) was then added ([…]), the plates were mixed on an orbital shaker at room temperature in the dark for 15 min., and luminescence was measured using an Envision plate reader (Perkin Elmer). IC50 values were calculated using a four-parameter logistic curve fit. Results are shown below in Table 2; ND indicates no data.
`Cc1ccc(Cn2cc(-c3nc(-c4ccc(OC(F)(F)F)cc4)no3)ccc2=O)cc1` [Example 26, 1-(4-Methylbenzyl)-5-(3-(4-(trifluoromethoxy)phenyl)-1,2,4-oxadiazol-5-yl)pyridin-2(1H)-one] was tested, and the IC50 was < 100 nM. In the case of `Cc1ccc(-c2nnc(-c3ccc(OC(F)(F)F)cc3)o2)c(=O)n1Cc1ccnc(N2CCOCC2)c1` [Example 27, 6-Methyl-1-((2-morpholinopyridin-4-yl)methyl)-3-(5-(4-(trifluoromethoxy)phenyl)-1,3,4-oxadiazol-2-yl)pyridin-2(1H)-one], the IC50 is reported as 100 to 1000 nM. Work on `Cc1ccc(-c2nnc(-c3ccc(OC(F)(F)F)cc3)o2)c(=O)n1Cc1ccnc(N2CCC(C#N)CC2)c1` [Example 28, 1-(4-((6-Methyl-2-oxo-3-(5-(4-(trifluoromethoxy)phenyl)-1,3,4-oxadiazol-2-yl)pyridin-1(2H)-yl)methyl)pyridin-2-yl)piperidine-4-carbonitrile] yielded an IC50 of 100 to 1000 nM. `COC(=O)Cc1cccc(Cn2nc(-c3nc(-c4ccc(OC(F)(F)F)cc4)no3)ccc2=O)c1` [Example 29, Methyl 2-{3-[(6-oxo-3-{3-[4-(trifluoromethoxy)phenyl]-1,2,4-oxadiazol-5-yl}-1,6-dihydropyridazin-1-yl)methyl]phenyl}acetate] was tested, and the IC50 was < 100 nM. `COC(=O)C(C)(C)c1cccc(Cn2nc(-c3nc(-c4ccc(OC(F)(F)F)cc4)no3)ccc2=O)c1` [Example 30, Methyl 2-methyl-2-{3-[(6-oxo-3-{3-[4-(trifluoromethoxy)phenyl]-1,2,4-oxadiazol-5-yl}-1,6-dihydropyridazin-1-yl)methyl]phenyl}propanoate] was tested, and the IC50 was < 100 nM. For `O=c1ccc(-c2nc(-c3ccc(OC(F)(F)F)cc3)no2)cn1Cc1cccc(N2CCCC2)c1` [Example 31, 1-{[3-(Pyrrolidin-1-yl)phenyl]methyl}-5-{3-[4-(trifluoromethoxy)phenyl]-1,2,4-oxadiazol-5-yl}-1,2-dihydropyridin-2-one], the IC50 was < 100 nM. Work on `O=c1ccc(-c2nc(-c3ccc(OC(F)(F)F)cc3)no2)cn1Cc1cccc(O)c1` [Example 32, 1-[(3-Hydroxyphenyl)methyl]-5-{3-[4-(trifluoromethoxy)phenyl]-1,2,4-oxadiazol-5-yl}-1,2-dihydropyridin-2-one] yielded an IC50 of 100 to 1000 nM. Compound `COCCOc1cccc(Cn2cc(-c3nc(-c4ccc(OC(F)(F)F)cc4)no3)ccc2=O)c1` [Example 33, 1-{[3-(2-Methoxyethoxy)phenyl]methyl}-5-{3-[4-(trifluoromethoxy)phenyl]-1,2,4-oxadiazol-5-yl}-1,2-dihydropyridin-2-one] has an IC50 of 100 to 1000 nM. With `NCCOc1cccc(Cn2cc(-c3nc(-c4ccc(OC(F)(F)F)cc4)no3)ccc2=O)c1` [Example 34, 1-{[3-(2-Aminoethoxy)phenyl]methyl}-5-{3-[4-(trifluoromethoxy)phenyl]-1,2,4-oxadiazol-5-yl}-1,2-dihydropyridin-2-one] the IC50 was < 100 nM. For `CN(C)S(=O)(=O)c1cccc(Cn2cc(-c3nc(-c4ccc(OC(F)(F)F)cc4)no3)ccc2=O)c1` [Example 35, N,N-Dimethyl-3-[(2-oxo-5-{3-[4-(trifluoromethoxy)phenyl]-1,2,4-oxadiazol-5-yl}-1,2-dihydropyridin-1-yl)methyl]benzene-1-sulfonamide], the IC50 was < 100 nM. For `CC(C)(C(=O)O)c1cccc(Cn2cc(-c3nc(-c4ccc(OC(F)(F)F)cc4)no3)ccc2=O)c1` [Example 36, 2-Methyl-2-{3-[(2-oxo-5-{3-[4-(trifluoromethoxy)phenyl]-1,2,4-oxadiazol-5-yl}-1,2-dihydropyridin-1-yl)methyl]phenyl}propanoic acid], the IC50 was 100 to 1000 nM. With `CCCS(=O)(=O)c1cccc(Cn2cc(-c3nc(-c4ccc(OC(F)(F)F)cc4)no3)ccc2=O)c1` [Example 37, 1-{[3-(propane-1-sulfonyl)phenyl]methyl}-5-{3-[4-(trifluoromethoxy)phenyl]-1,2,4-oxadiazol-5-yl}-1,2-dihydropyridin-2-one] the IC50 was < 100 nM. Work on `CC(C)(CO)c1cccc(Cn2cc(-c3nc(-c4ccc(OC(F)(F)F)cc4)no3)ccc2=O)c1` [Example 38, 1-{[3-(1-Hydroxy-2-methylpropan-2-yl)phenyl]methyl}-5-{3-[4-(trifluoromethoxy)phenyl]-1,2,4-oxadiazol-5-yl}-1,2-dihydropyridin-2-one] yielded an IC50 of 100 to 1000 nM. `CC(C)(O)c1cccc(Cn2cc(-c3nc(-c4ccc(OC(F)(F)F)cc4)no3)ccc2=O)c1` [Example 39, 1-{[3-(2-Hydroxypropan-2-yl)phenyl]methyl}-5-{3-[4-(trifluoromethoxy)phenyl]-1,2,4-oxadiazol-5-yl}-1,2-dihydropyridin-2-one] was tested, and the IC50 was < 100 nM. `CN(C)C(=O)/C=C/c1cccc(Cn2cc(-c3nc(-c4ccc(OC(F)(F)F)cc4)no3)ccc2=O)c1` [Example 40, (2E)-N,N-dimethyl-3-{3-[(2-oxo-5-{3-[4-(trifluoromethoxy)phenyl]-1,2,4-oxadiazol-5-yl}-1,2-dihydropyridin-1-yl)methyl]phenyl}prop-2-enamide] was tested, and the IC50 was < 100 nM. For `CS(=O)(=O)C1CCN(c2cccc(Cn3cc(-c4nc(-c5ccc(OC(F)(F)F)cc5)no4)ccc3=O)c2)CC1` [Example 41, 1-{[3-(4-Methanesulfonylpiperidin-1-yl)phenyl]methyl}-5-{3-[4-(trifluoromethoxy)phenyl]-1,2,4-oxadiazol-5-yl}-1,2-dihydropyridin-2-one], the IC50 was < 100 nM. With `O=c1ccc(-c2nc(-c3ccc(OC(F)(F)F)cc3)no2)cn1Cc1cccc(CCO)c1` [Example 42, 1-{[3-(2-Hydroxyethyl)phenyl]methyl}-5-{3-[4-(trifluoromethoxy)phenyl]-1,2,4-oxadiazol-5-yl}-1,2-dihydropyridin-2-one] the IC50 was < 100 nM. With `O=c1ccc(-c2nc(-c3ccc(OC(F)(F)F)cc3)no2)cn1Cc1cccc(CO)c1` [Example 43, 1-{[3-(Hydroxymethyl)phenyl]methyl}-5-{3-[4-(trifluoromethoxy)phenyl]-1,2,4-oxadiazol-5-yl}-1,2-dihydropyridin-2-one] the IC50 was < 100 nM. `CC(=O)SCc1cccc(Cn2cc(-c3nc(-c4ccc(OC(F)(F)F)cc4)no3)ccc2=O)c1` [Example 44, 1-({3-[(Acetylsulfanyl)methyl]phenyl}methyl)-5-{3-[4-(trifluoromethoxy)phenyl]-1,2,4-oxadiazol-5-yl}-1,2-dihydropyridin-2-one] was tested, and the IC50 was < 100 nM. In the case of `O=c1ccc(-c2nc(-c3ccc(OC(F)(F)F)cc3)no2)cn1Cc1cccc(CS)c1` [Example 45, 1-{[3-(Sulfanylmethyl)phenyl]methyl}-5-{3-[4-(trifluoromethoxy)phenyl]-1,2,4-oxadiazol-5-yl}-1,2-dihydropyridin-2-one], the IC50 is reported as < 100 nM. With `COC(=O)CCc1cccc(Cn2cc(-c3nc(-c4ccc(OC(F)(F)F)cc4)no3)ccc2=O)c1` [Example 46, Methyl 3-{3-[(2-oxo-5-{3-[4-(trifluoromethoxy)phenyl]-1,2,4-oxadiazol-5-yl}-1,2-dihydropyridin-1-yl)methyl]phenyl}propanoate] the IC50 was < 100 nM. `O=C(O)CCc1cccc(Cn2cc(-c3nc(-c4ccc(OC(F)(F)F)cc4)no3)ccc2=O)c1` [Example 47, 3-{3-[(2-oxo-5-{3-[4-(trifluoromethoxy)phenyl]-1,2,4-oxadiazol-5-yl}-1,2-dihydropyridin-1-yl)methyl]phenyl}propanoic acid] was tested, and the IC50 was 100 to 1000 nM. `O=c1ccc(-c2nc(-c3ccc(OC(F)(F)F)cc3)no2)cn1Cc1cccc(CCCO)c1` [Example 48, 1-{[3-(3-Hydroxypropyl)phenyl]methyl}-5-{3-[4-(trifluoromethoxy)phenyl]-1,2,4-oxadiazol-5-yl}-1,2-dihydropyridin-2-one] was tested, and the IC50 was < 100 nM. For `CN(C)C(=O)CCc1cccc(Cn2cc(-c3nc(-c4ccc(OC(F)(F)F)cc4)no3)ccc2=O)c1` [Example 49, N,N-Dimethyl-3-{3-[(2-oxo-5-{3-[4-(trifluoromethoxy)phenyl]-1,2,4-oxadiazol-5-yl}-1,2-dihydropyridin-1-yl)methyl]phenyl}propanamide], the IC50 was < 100 nM. `CC(C)(O)c1cc(Cn2cc(-c3nc(-c4ccc(OC(F)(F)F)cc4)no3)ccc2=O)ccn1` [Example 50, 1-{[2-(2-Hydroxypropan-2-yl)pyridin-4-yl]methyl}-5-{3-[4-(trifluoromethoxy)phenyl]-1,2,4-oxadiazol-5-yl}-1,2-dihydropyridin-2-one] showed an IC50 of 100 to 1000 nM. `COCCOc1cc(Cn2cc(-c3nc(-c4ccc(OC(F)(F)F)cc4)no3)ccc2=O)ccn1` [Example 51, 1-{[2-(2-Methoxyethoxy)pyridin-4-yl]methyl}-5-{3-[4-(trifluoromethoxy)phenyl]-1,2,4-oxadiazol-5-yl}-1,2-dihydropyridin-2-one] gave an IC50 of 100 to 1000 nM. In the case of `C=Cc1cccc(Cn2cc(-c3nc(-c4ccc(OC(F)(F)F)cc4)no3)ccc2=O)c1` [Example 52, 5-(3-(4-(Trifluoromethoxy)phenyl)-1,2,4-oxadiazol-5-yl)-1-(3-vinylbenzyl)pyridin-2(1H)-one], the IC50 is reported as < 100 nM. With `O=c1ccc(-c2nc(-c3ccc(OC(F)(F)F)cc3)no2)cn1Cc1cccc(C(O)CO)c1` (centres unmarked) [Example 53, 1-(3-(1,2-Dihydroxyethyl)benzyl)-5-(3-(4-(trifluoromethoxy)phenyl)-1,2,4-oxadiazol-5-yl)pyridin-2(1H)-one] the IC50 was < 100 nM. With `C=CCOc1cccc(Cn2cc(-c3nc(-c4ccc(OC(F)(F)F)cc4)no3)ccc2=O)c1` [Example 54, 1-(3-(Allyloxy)benzyl)-5-(3-(4-(trifluoromethoxy)phenyl)-1,2,4-oxadiazol-5-yl)pyridin-2(1H)-one] the IC50 was < 100 nM.
